According to patent US11236129B2, “IL-17A binding peptides and medical uses thereof” (Dompe' Farmaceutici S.P.A., priority 2018, dated 2022):
Like-named read-outs stand apart in the source and are kept apart here. Residues, ends and D or L forms follow the SMILES beside them.

Key:
[1] = target: IL-17RA/IL17RC dimerization induced by IL-17A (Homo sapiens, UniProt Q16552); assay: IL-17RA/IL17RC dimerization assay in response to IL-17A (PathHunter Cytokine Receptor Assay); type: cell-based; conditions: IL-17A at EC80; read-out: IC50 in IL-17RA/IL7RC dimerization assay
Sequence of IL-17RA/IL17RC dimerization induced by IL-17A (Q16552 24-155): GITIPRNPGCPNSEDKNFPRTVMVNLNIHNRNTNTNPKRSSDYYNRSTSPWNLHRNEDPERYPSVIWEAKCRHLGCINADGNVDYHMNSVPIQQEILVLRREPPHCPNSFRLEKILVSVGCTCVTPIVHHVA
Outline: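 PathHunter cells with IL-17RA and IL-17RC tagged for β-galactosidase complementation were preincubated 60 min with peptide (1% vehicle). IL-17A was then added at EC80 for 6–16 h at 37 °C, and chemiluminescence was read. Inhibition is relative to the EC80 and vehicle controls.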

[2] = Isoelectric point, log D and log P (SiriusT3); type: physicochemical; conditions: for IP (isoelectric point): 25±1° C., 0.15 M KCl; for logD: pH 7.4, pH 7.4, octanol/ISA water, read-out: Log D (7.4)
Experimental: The main physicochemical properties (Isoelectric point (IP), log D (7.4) and log P) of the peptides of Table 8 below were determined by using the SiriusT3 apparatus (Sirius Analytical Instruments Ltd., East Sussex, UK) equipped with an Ag/AgCl double junction reference pH electrode, a Sirius D-PAS spectrometer and a turbidity sensing device. […] An overhead stirrer was used and a temperature probe (Peltier controller) monitored the temperature during the course of the titration. The titration experiments were conducted in 0.15 M KCl Ionic Strength Adjusted solution (ISA water) under a nitrogen atmosphere at a temperature of 25±1° C. All tests were performed using standardized 0.5 M KOH and 0.5 M HCl as titration reagents, for the partition coefficient tests a saturated Octanol in ISA water (5% of ISA water) was used as partition solvent. The pKas were determined by potentiometric method by pH-metric titration. The powder (around 0.5 mg) was dissolved in 1.5 ml of ISA water and the titration was performed in triplicate in the pH range 2.0−12.0.

[3] = type: physicochemical; conditions: pH 7.8
Experimental: Each lyophilized peptide was weighed in an amber vial. A calculated volume of phosphate buffered solution at pH 7.8 was added in order to directly obtain 10 mM Stock Solutions. The recovered suspensions were stirred for 30 minutes by orbital shaker incubator at 37° C. Subsequent dilutions were performed to obtain the more diluted stock solutions for the less soluble compounds.
In order to evaluate the stability and the solubility, all the stock solutions were stored at 25° C. The title was evaluated by UHPLC-MS analysis in comparison with the standard solutions, at 3 time points: T0, 3 days, 1 week.
The chromatographic profile was evaluated for the quantitative assay while the MS spectra were detected as support in the stability studies.
Each peptide was weighed and directly diluted at 100 μM with the phosphate buffer at pH 7.8. The solutions were stirred for 5 minutes by vortex and heated at 37° C. for 20 minutes. The obtained standard solution was stored at 25° C. in the dark under controlled temperature.
A portion of the stock solutions was collected in an amber vial and diluted to 100 μM by phosphate buffer at pH 7.8 (dilution factor, 1:100).
Reversed-phase UHPLC was performed operating at a flow rate of 0.3 ml/min with a Luna Omega Polar C18 column ([…] 1.6 μm, 2.1×100 mm). Solvent A was 0.5% Formic Acid in water and solvent B was 0.5% Formic Acid in acetonitrile. First, samples were loaded onto the column and washed isocratically at 10% B for 3 min. Then, a gradient of 10-95% B was run over 22 min, held at 95% for 2 min, and then decreased to 10% over 1 min and held, for the pressure stabilization, for 5 min. UV Absorption was monitored by DAD (220-400 nm). ESI-MS ion trap was used for the monitoring of TIC.

[4] = octanol/ISA water, read-out: logP

SMILES	IC50 [1] [nM]	IP (isoelectric point) [2]	logP [2, 4]	logD [2]	solubility [3] [mM]	logP [2]	Log D (7.4) ([2]; pH 7.4)
CC[C@H](C)[C@H](NC(=O)[C@H](Cc1c[nH]c2ccccc12)NC(=O)[C@H](CCC(=O)O)NC(=O)[C@H](Cc1ccc(O)cc1)NC(=O)[C@H](CC(C)C)NC(=O)[C@H](CC(=O)O)NC(=O)[C@H](C)NC(=O)[C@@H]1CCCN1C(=O)[C@@H](NC(=O)[C@@H](NC(=O)[C@@H](NC(=O)[C@H](CCSC)NC(=O)[C@@H](NC(C)=O)C(C)C)C(C)C)[C@@H](C)O)[C@@H](C)CC)C(=O)N[C@@H](CCC(=O)O)C(=O)N[C@@H](CCC(=O)O)C(=O)NCC(=O)NCC(=O)N[C@@H](CCCCN)C(=O)N[C@@H](CCC(=O)O)C(=O)N[C@H](C(=O)N[C@@H](Cc1c[nH]c2ccccc12)C(=O)N[C@@H](Cc1c[nH]c2ccccc12)C(=O)N[C@@H](CCC(=O)O)C(=O)N[C@H](C(=O)N[C@@H](Cc1c[nH]c2ccccc12)C(N)=O)[C@@H](C)O)[C@@H](C)O [SEQ ID NO: 25] (Ac-VMVTIPADLYEWIEEGGKETWWETW-NH2)	< 1000	4.66	0.4	-5.64	≥ 0.1		
CC[C@H](C)[C@H](NC(=O)[C@H](Cc1c[nH]c2ccccc12)NC(=O)[C@H](CCC(=O)O)NC(=O)[C@H](Cc1ccc(O)cc1)NC(=O)[C@H](CC(C)C)NC(=O)[C@H](CC(=O)O)NC(=O)[C@H](C)NC(=O)[C@@H]1CCCN1C(=O)[C@@H](NC(=O)[C@@H](NC(=O)[C@@H](NC(=O)[C@H](CCSC)NC(=O)[C@@H](NC(C)=O)C(C)C)C(C)C)[C@@H](C)O)[C@@H](C)CC)C(=O)N[C@@H](CCC(=O)O)C(=O)N[C@@H](CCC(=O)O)C(=O)N[C@H](C(=O)N1CCC[C@H]1C(=O)NCC(=O)N[C@@H](CCCCN)C(=O)NCC(N)=O)C(C)C [SEQ ID NO: 26] (Ac-VMVTIPADLYEWIEEVPGKG-NH2)	< 1000	8.13	0.69	0.148	> 10		
CC[C@H](C)[C@H](NC(=O)[C@H](Cc1c[nH]c2ccccc12)NC(=O)[C@H](CCC(=O)O)NC(=O)[C@H](Cc1ccc(O)cc1)NC(=O)[C@H](CC(C)C)NC(=O)[C@H](CC(=O)O)NC(=O)[C@H](C)NC(=O)[C@@H]1CCCN1C(=O)[C@@H](NC(=O)[C@@H](NC(=O)[C@@H](NC(=O)[C@H](CCSC)NC(=O)[C@@H](NC(C)=O)C(C)C)C(C)C)[C@@H](C)O)[C@@H](C)CC)C(=O)N[C@@H](CCC(=O)O)C(=O)N[C@@H](CCC(=O)O)C(=O)N[C@H](C(=O)N1CCC[C@H]1C(=O)NCC(=O)N[C@@H](C)C(=O)NCC(N)=O)C(C)C [SEQ ID NO: 27] (Ac-VMVTIPADLYEWIEEVPGAG-NH2)	< 1000	5.14	0.69	0.148	> 10		
CC[C@H](C)[C@H](NC(=O)[C@H](Cc1c[nH]c2ccccc12)NC(=O)[C@H](CCC(=O)O)NC(=O)[C@H](Cc1ccc(O)cc1)NC(=O)[C@H](CC(C)C)NC(=O)[C@H](CC(=O)O)NC(=O)[C@H](C)NC(=O)[C@@H]1CCCN1C(=O)[C@@H](NC(=O)[C@@H](NC(=O)[C@@H](NC(=O)[C@H](CCSC)NC(=O)[C@@H](NC(C)=O)C(C)C)C(C)C)[C@@H](C)O)[C@@H](C)CC)C(=O)N[C@@H](CCC(=O)O)C(=O)N[C@@H](CCC(=O)O)C(=O)N[C@@H](CCCNC(=N)N)C(=O)N[C@@H](CCC(N)=O)C(=O)N[C@H](C(=O)N[C@@H](CCCCN)C(=O)N[C@H](C(=O)N[C@@H](Cc1c[nH]c2ccccc12)C(=O)N[C@@H](Cc1ccccc1)C(=O)N[C@@H](CCC(N)=O)C(=O)N[C@@H](CC(N)=O)C(=O)N[C@@H](CCCNC(=N)N)C(=O)N[C@@H](CCCNC(=N)N)C(=O)N[C@@H](CCSC)C(=O)N[C@@H](CCCCN)C(=O)N[C@@H](Cc1c[nH]c2ccccc12)C(=O)N[C@@H](CCCCN)C(=O)N[C@@H](CCCCN)C(N)=O)[C@@H](C)CC)[C@@H](C)CC [SEQ ID NO: 28] (Ac-VMVTIPADLYEWIEERQIKIWFQNRRMKWKK-NH2)	< 1000	12.25			≥ 0.1	−6.36	−6.44
CC[C@H](C)[C@H](NC(=O)[C@H](Cc1c[nH]c2ccccc12)NC(=O)[C@H](CCC(=O)O)NC(=O)[C@H](Cc1ccc(O)cc1)NC(=O)[C@H](CC(C)C)NC(=O)[C@H](CC(=O)O)NC(=O)[C@H](C)NC(=O)[C@@H]1CCCN1C(=O)[C@@H](NC(=O)[C@@H](NC(=O)[C@@H](NC(=O)[C@H](CCSC)NC(=O)[C@@H](NC(=O)[C@H](CCCNC(=N)N)NC(=O)[C@H](CCCNC(=N)N)NC(=O)[C@H](CCCNC(=N)N)NC(=O)[C@H](CCCNC(=N)N)NC(=O)[C@H](CCCNC(=N)N)NC(=O)[C@H](CCCNC(=N)N)NC(=O)[C@H](CCCNC(=N)N)NC(=O)[C@H](CCCNC(=N)N)NC(C)=O)C(C)C)C(C)C)[C@@H](C)O)[C@@H](C)CC)C(=O)N[C@@H](CCC(=O)O)C(=O)N[C@@H](CCC(=O)O)C(N)=O [SEQ ID NO: 29] (Ac-RRRRRRRRVMVTIPADLYEWIEE-NH2)	< 1000	12.25			> 10		
CC[C@H](C)[C@H](NC(=O)[C@H](Cc1c[nH]c2ccccc12)NC(=O)[C@H](CCC(=O)O)NC(=O)[C@H](Cc1ccc(O)cc1)NC(=O)[C@H](CC(C)C)NC(=O)[C@H](CC(=O)O)NC(=O)[C@H](C)NC(=O)[C@@H]1CCCN1C(=O)[C@@H](NC(=O)[C@@H](NC(=O)[C@@H](NC(=O)[C@H](CCSC)NC(=O)[C@@H](NC(C)=O)C(C)C)C(C)C)[C@@H](C)O)[C@@H](C)CC)C(=O)N[C@@H](CCC(=O)O)C(=O)N[C@@H](CCC(=O)O)C(=O)N[C@@H](CCCNC(=N)N)C(=O)N[C@@H](CCCNC(=N)N)C(=O)N[C@@H](CCCNC(=N)N)C(=O)N[C@@H](CCCNC(=N)N)C(=O)N[C@@H](CCCNC(=N)N)C(=O)N[C@@H](CCCNC(=N)N)C(=O)N[C@@H](CCCNC(=N)N)C(=O)N[C@@H](CCCNC(=N)N)C(N)=O [SEQ ID NO: 30] (Ac-VMVTIPADLYEWIEERRRRRRRR-NH2)	< 1000	12.96		-3.89	≥ 0.1		
CC[C@H](C)[C@H](NC(=O)[C@H](Cc1c[nH]c2ccccc12)NC(=O)[C@H](CCC(=O)O)NC(=O)[C@H](Cc1ccc(O)cc1)NC(=O)[C@H](CC(C)C)NC(=O)[C@H](CC(=O)O)NC(=O)[C@H](C)NC(=O)[C@@H]1CCCN1C(=O)[C@@H](NC(=O)[C@@H](NC(=O)[C@@H](NC(=O)[C@H](CCSC)NC(=O)[C@@H](NC(=O)[C@H](C)NC(=O)[C@H](CCCCN)NC(=O)[C@H](C)NC(=O)[C@H](C)NC(=O)[C@H](CCCCN)NC(=O)[C@H](CCCCN)NC(=O)[C@H](CCCNC(=N)N)NC(=O)[C@H](C)NC(C)=O)C(C)C)C(C)C)[C@@H](C)O)[C@@H](C)CC)C(=O)N[C@@H](CCC(=O)O)C(=O)N[C@@H](CCC(=O)O)C(N)=O [SEQ ID NO: 31] (Ac-ARKKAAKAVMVTIPADLYEWIEE-NH2)	< 1000	12.5	-4.9	-3.59	> 10		
CC[C@H](C)[C@H](NC(=O)[C@H](Cc1c[nH]c2ccccc12)NC(=O)[C@H](CCC(=O)O)NC(=O)[C@H](Cc1ccc(O)cc1)NC(=O)[C@H](CC(C)C)NC(=O)[C@H](CC(=O)O)NC(=O)[C@H](C)NC(=O)[C@@H]1CCCN1C(=O)[C@@H](NC(=O)[C@@H](NC(=O)[C@@H](NC(=O)[C@H](CCSC)NC(=O)[C@@H](NC(=O)[C@H](CCC(N)=O)NC(=O)[C@H](CO)NC(=O)[C@H](Cc1c[nH]c2ccccc12)NC(=O)[C@H](CCC(=O)O)NC(=O)[C@@H](NC(=O)[C@H](Cc1c[nH]c2ccccc12)NC(=O)[C@H](Cc1c[nH]c2ccccc12)NC(=O)[C@@H](NC(=O)CNC(=O)CNC(C)=O)[C@@H](C)O)[C@@H](C)O)C(C)C)C(C)C)[C@@H](C)O)[C@@H](C)CC)C(=O)N[C@@H](CCC(=O)O)C(=O)N[C@@H](CCC(=O)O)C(N)=O [SEQ ID NO: 32] (Ac-GGTWWTEWSQVMVTIPADLYEWIEE-NH2)	< 1000			-3.59	< 0.05		
